Reference: PubChem BioAssay AID844 (SRMLSC, 2007)
Activity calls are given as the source filed them. The rule behind the calls is not given here.

Tested on: MRP1 cells, doxorubicin viability shift, 10 uM compound
Test: viability protection against doxorubicin, MRP-1 line – cell-based, doxorubicin EC50 shift, dose response (AID 844)
Settings: for EC50: measured here: doxorubicin EC50 with compound

Row | Structure (SMILES) | fold increase in Dox EC50 | EC50
1 | COc1ccc(C(=O)Nc2ccccc2Cc2ccccc2)c(OC)c1 | 0.66 (inactive) | 3.54 µM
2 | CC1CCc2nn(CC(=O)N3CCN(C(=O)c4ccco4)CC3)cc2C1 (centres undefined) | 0.66 (inactive) | 3.57 µM
3 | CCn1c(SCc2ccc(Cl)cc2)nc2nc3c(cc2c1=O)CCCC3 | 0.77 (inactive) | 4.17 µM
4 | COc1ccc(OC)c(-c2cc(C(=O)Nc3c(C)nn(Cc4ccccc4Cl)c3C)no2)c1 | 0.55 (inactive) | 2.99 µM
5 | Oc1c(C(c2cccs2)N2CCN(c3ccc(F)cc3)CC2)sc2ncnn12 (centres undefined) | 1.32 (inactive) | 7.1 µM
6 | Cc1ccc(C2CC(C(F)(F)F)n3nc(C(=O)NCc4c(C)nn(C)c4C)c(Cl)c3N2)cc1 (centres undefined) | 1.13 (inactive) | 6.1 µM
7 | COc1ccc(-c2c(C#N)c(N)nc3sc(C(=O)c4ccccc4)c(N)c23)cc1 | 0.34 (inactive) | 1.86 µM
8 | CCN(CC)S(=O)(=O)c1cc(NC(=O)C(=O)c2c(-c3ccccc3)cc3ccccn23)ccc1C | 1.28 (inactive) | 6.91 µM
9 | COc1ccc(Cl)cc1N1C(=O)C2CCCN2C1c1ccc(F)c(F)c1 (centres undefined) | 0.85 (inactive) | 4.61 µM
10 | COc1ccc(CNc2nc3c(c(=O)n(Cc4ccc(Cl)cc4)c(=O)n3C)n2C)cc1 | 0.83 (inactive) | 4.48 µM
11 | Fc1cccc(-c2cc3nc(-c4ccccc4)cc(N4CCC5(CC4)OCCO5)n3n2)c1 | 0.56 (inactive) | 3.04 µM
12 | COC(=O)c1ccc(COc2cc(O)c3c(c2)OC(C)(C)CC3=O)cc1 | 1.03 (inactive) | 5.56 µM
13 | Cc1ccc(NC(=O)CSc2nc(O)cc(=O)n2C)cc1 | 1.34 (inactive) | 7.25 µM
14 | COc1ccc(N(C(=O)Cn2cnc3ccccc32)C(C(=O)NC2CCCCC2)c2ccccc2)cc1 (centres undefined) | 0.38 (inactive) | 2.07 µM
15 | COc1ccc(C(=O)NCCn2cc(SCC(=O)Nc3nnc(C)s3)c3ccccc32)cc1 | 0.5 (inactive) | 2.72 µM
16 | CCc1nnc(NC(=O)C2CCCN2S(=O)(=O)c2ccc(C)cc2)s1 (centres undefined) | 1.04 (inactive) | 5.6 µM
17 | Cc1ccsc1CNn1cnnc1SCc1ccc(Cl)cc1 | 0.78 (inactive) | 4.22 µM
18 | CNC(=O)CSc1nnc(COc2ccc(Cl)cc2)n1CCOC | 1.29 (inactive) | 6.95 µM
19 | Cc1nnc(NC(=O)c2c(F)cccc2F)s1 | 1.23 (inactive) | 6.63 µM

Row | Structure (SMILES) | fold increase in Dox EC50 | EC50
20 | C=CCn1c(CNc2ccccc2)nnc1SCC(=O)N/N=C/c1ccccc1O | 0.58 (inactive) | 3.11 µM
21 | CCC(Sc1nc2ccccc2o1)C(=O)Nc1nnc(C)s1 (centres undefined) | 1.34 (inactive) | 7.22 µM
22 | COc1ccc(CSC2=NCCN2)cc1Cl | 0.63 (inactive) | 3.4 µM
23 | O=C(O)/C=C\C(=O)NC1CCCCC1 | 0.68 (inactive) | 3.67 µM
24 | Cc1ccc(NC(=O)CNC(=O)c2cccs2)cc1S(=O)(=O)Nc1ccc(Cl)cc1 | 1.11 (inactive) | 5.97 µM
25 | COC(=O)c1cn(NC(=O)c2cccnc2)c(=O)c2ccccc12 | 0.52 (inactive) | 2.79 µM
26 | C=CCc1c(C)nc(-c2ccccc2)nc1N/N=C(\C)c1ccc(N)cc1 | 1.3 (inactive) | 6.99 µM
27 | CC(Oc1ccc(Cl)cc1Cl)C(=O)NC1CCSC1=O (centres undefined) | 1.98 | 10.7 µM
28 | COc1ccccc1-c1cc(C(=O)NC(C)c2ccccc2)no1 (centres undefined) | 1.04 (inactive) | 5.64 µM
29 | O=C(NNC1=C(C(=O)C(F)(F)F)CCC1)c1cccc(Cl)c1 | 1.03 (inactive) | 5.54 µM
30 | COc1cccc(Nc2ncc(C(=O)O)c3ccccc23)c1 | 0.56 (inactive) | 3.01 µM
31 | CC1(C)O[C@@H]2C[C@H]3[C@@H]4C[C@H](F)C5=CC(=O)CC[C@]5(C)[C@H]4[C@@H](O)C[C@]3(C)[C@]2(C(=O)CO)O1 | 0.65 (inactive) | 3.52 µM
32 | CCc1nnc(NC(=O)c2ccc(S(=O)(=O)NCC(C)C)cc2)s1 | 0.53 (inactive) | 2.88 µM
33 | FC(F)(F)c1cccc(CNc2ncccc2-c2nc3cc(Cl)ccc3o2)c1 | 0.93 (inactive) | 5.03 µM
34 | O=C(Nc1ncc(Cc2ccc(C(F)(F)F)cc2)s1)c1ccc(-c2cccc([N+](=O)[O-])c2)o1 | 0.71 (inactive) | 3.86 µM
35 | CCOC(=O)c1c(-c2cccc([N+](=O)[O-])c2)csc1NC(=O)C1CCCCC1 | 0.34 (inactive) | 1.84 µM
36 | Cc1ccc(C(=O)CSc2n[nH]c(-c3ccco3)n2)cc1C | 0.74 (inactive) | 3.97 µM
37 | CCOc1ccc(NC(=O)CN2C(=O)COc3ccc(Cl)cc32)cc1 | 1.33 (inactive) | 7.19 µM
